Key:
Settings in all cases: exposure time: 72 h
E28 [1] = patient-derived glioblastoma stem cells of classical subtype; assay: phenotypic distance (Euclidean, principal components) from DMSO controls (arbitrary units); higher = stronger morphological change
E34 [2] = patient-derived glioblastoma stem cells of proneural subtype; assay: as above
E31 [3] = patient-derived glioblastoma stem cells of proneural subtype; assay: as above
E13 [4] = patient-derived glioblastoma stem cells of classical subtype; assay: as above
E57 [5] = patient-derived glioblastoma stem cells of mesenchymal subtype; assay: as above
E21 [6] = patient-derived glioblastoma stem cells of mesenchymal subtype; assay: as above
FT3469 [7] = normal neural stem cell line; assay: as above
E28 [8] = assay: surviving fraction (nuclei count normalised to DMSO); higher = more cells surviving (less toxic)
E34 [9] = assay: as above
E31 [10] = assay: as above
E13 [11] = assay: as above
E57 [12] = assay: as above
E21 [13] = assay: as above
FT3469 [14] = assay: as above
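For phenotypic distance (Euclidean, principal components) from DMSO controls in this document: cell Painting imaging in 384-well plates, CellProfiler features reduced to at least 20 principal components, Euclidean distance versus same-plate DMSO vehicle wells (0.1% v/v), median over six images per well.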
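For surviving fraction (nuclei count normalised to DMSO) in this document: nuclei counted by high-content imaging of Hoechst-stained cells in laminin-coated 384-well plates, relative to 0.1% DMSO vehicle wells, with staurosporine as cell-death control.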

CC(=O)O[C@H]1C[C@H](O[C@H]2[C@@H](O)C[C@H](O[C@H]3[C@@H](O)C[C@H](O[C@H]4CC[C@@]5(C)[C@H](CC[C@@H]6[C@@H]5C[C@@H](O)[C@]5(C)[C@@H](C7=CC(=O)OC7)CC[C@]65O)C4)O[C@@H]3C)O[C@@H]2C)O[C@H](C)[C@H]1O[C@@H]1O[C@H](CO)[C@@H](O)[C@H](O)[C@H]1O [Lanatoside C]
Settings	phenotypic distance	surviving fraction
E13 [4], 4.1 nM	3.23	–
E13 [4], 12.3 nM	4.4	–
E13 [4], 37 nM	4.8	–
E13 [4], 111.1 nM	5.94	–
E13 [4], 333.3 nM	6.29	–
E13 [4], 1000 nM	6.53	–
E13 [4], 3000 nM	6.35	–
E13 [11], 4.1 nM	–	0.646
E13 [11], 12.3 nM	–	0.373
E13 [11], 37 nM	–	0.344
E13 [11], 111.1 nM	–	0.349
E13 [11], 333.3 nM	–	0.268
E13 [11], 1000 nM	–	0.273
E13 [11], 3000 nM	–	0.245
E21 [6], 4.1 nM	2.87	–
E21 [6], 12.3 nM	3.93	–
E21 [6], 37 nM	4.41	–
E21 [6], 111.1 nM	6.06	–
E21 [6], 333.3 nM	7.08	–
E21 [6], 1000 nM	6.66	–
E21 [6], 3000 nM	6.83	–
E21 [13], 4.1 nM	–	0.829
E21 [13], 12.3 nM	–	0.52
E21 [13], 37 nM	–	0.513
E21 [13], 111.1 nM	–	0.347
E21 [13], 333.3 nM	–	0.287
E21 [13], 1000 nM	–	0.214
E21 [13], 3000 nM	–	0.241
E28 [1], 4.1 nM	1.18	–
E28 [1], 12.3 nM	1.82	–
E28 [1], 37 nM	2.35	–
E28 [1], 111.1 nM	3.35	–
E28 [1], 333.3 nM	3.21	–
E28 [1], 1000 nM	3.17	–
E28 [1], 3000 nM	3.73	–
E28 [8], 4.1 nM	–	0.864
E28 [8], 12.3 nM	–	0.807
E28 [8], 37 nM	–	0.625
E28 [8], 111.1 nM	–	0.57
E28 [8], 333.3 nM	–	0.505
E28 [8], 1000 nM	–	0.394
E28 [8], 3000 nM	–	0.449
E31 [3], 4.1 nM	2.01	–
E31 [3], 12.3 nM	3.33	–
E31 [3], 37 nM	4.72	–
E31 [3], 111.1 nM	5.61	–
E31 [3], 333.3 nM	4.79	–
E31 [3], 1000 nM	4.62	–
E31 [3], 3000 nM	5.53	–
E31 [10], 4.1 nM	–	1.26
E31 [10], 12.3 nM	–	0.646
E31 [10], 37 nM	–	0.564
E31 [10], 111.1 nM	–	0.398
E31 [10], 333.3 nM	–	0.413
E31 [10], 1000 nM	–	0.35
E31 [10], 3000 nM	–	0.326
E34 [2], 4.1 nM	1.29	–
E34 [2], 12.3 nM	2.98	–
E34 [2], 37 nM	3.49	–
E34 [2], 111.1 nM	4.28	–
E34 [2], 333.3 nM	3.87	–
E34 [2], 1000 nM	3.82	–
E34 [2], 3000 nM	5.11	–
E34 [9], 4.1 nM	–	0.887
E34 [9], 12.3 nM	–	0.769
E34 [9], 37 nM	–	0.597
E34 [9], 111.1 nM	–	0.56
E34 [9], 333.3 nM	–	0.543
E34 [9], 1000 nM	–	0.397
E34 [9], 3000 nM	–	0.276
E57 [5], 4.1 nM	2.85	–
E57 [5], 12.3 nM	4.99	–
E57 [5], 37 nM	6.18	–
E57 [5], 111.1 nM	7.2	–
E57 [5], 333.3 nM	6.8	–
E57 [5], 1000 nM	6.87	–
E57 [5], 3000 nM	7.11	–
E57 [12], 4.1 nM	–	1.03
E57 [12], 12.3 nM	–	0.615
E57 [12], 37 nM	–	0.371
E57 [12], 111.1 nM	–	0.238
E57 [12], 333.3 nM	–	0.217
E57 [12], 1000 nM	–	0.177
E57 [12], 3000 nM	–	0.152
FT3469 [7], 4.1 nM	3.36	–
FT3469 [7], 12.3 nM	3.52	–
FT3469 [7], 37 nM	3.89	–
FT3469 [7], 111.1 nM	3.72	–
FT3469 [7], 333.3 nM	3.47	–
FT3469 [7], 1000 nM	3.7	–
FT3469 [7], 3000 nM	3.74	–
FT3469 [14], 4.1 nM	–	0.642
FT3469 [14], 12.3 nM	–	0.545
FT3469 [14], 37 nM	–	0.622
FT3469 [14], 111.1 nM	–	0.554
FT3469 [14], 333.3 nM	–	0.66
FT3469 [14], 1000 nM	–	0.627
FT3469 [14], 3000 nM	–	0.592
